Values after ≈ are worked out from the molar mass of the structure shown. Read-outs that look alike come from different tables or passages of the source.
What was measured:
[1] = tested on: herpes simplex virus 2 (HSV-2; strain MS); test: Plaque reduction test for herpes simplex virus 2; assay type: cell-based, Herpes Simplex Type 2 virus; conditions: each figure is the value obtained in a single test
Protocol: (§1) Cells (Vero or MRC-5) were grown to confluence in 24 well multi-dishes (well diameter = 1.5cm). The drained cell monolayers were each infected with approximately 50 infectious particles of herpes simplex virus 1 (HSV-1; strain HFEM) or herpes simplex virus 2 (HSV-2; strain MS) in 100»l of phosphate-buffered saline. The virus was adsorbed for 1 hour at room temperature. After adsorption, residual inoculum was removed from each well and replaced with 0.5ml of Eagle's MEM containing 5% newborn calf serum and 0.9% agarose (A37). Once the agarose had set, dilutions of the test compound, which had been prepared in Eagle's MEM (containing 5% newborn calf serum), were added, each well receiving 0.5ml of liquid overlay. The test compound was diluted to give the following series of concentrations: 200, 60, 20, 6....0.06»g/ml; final concentrations in the assay ranged, therefore, between 100»g/ml and 0.03»g/ml. The infected cultures were incubated at 37°C in a humidified atmosphere of 5% CO₂ until plaques were clearly visible (2 or 3 days for Vero cells, usually 1 day for MRC-5 cells).
(§2) Cultures from 1 and 2 were fixed in formal saline, the agarose overlays were carefully washed off, and then the cell monolayers were stained with carbol fuchsin. A stereo microscope was used to count plaques. The IC₅₀ (concentration of drug which inhibits plaque number by 50% relative to the number of plaques observed in virus control monolayers) of the test compound was calculated. In addition, the monolayers were examined for evidence of drug-induced cytotoxicity; the minimum concentration at which cytotoxicity occurs was recorded.

[2] = tested on: visna virus (strain K184); test: CPE inhibition test (established monolayer) for lentiviruses; assay type: cell-based; conditions: minimum concentration giving complete protection of the cell monolayers
Protocol: 3 x 10⁴ sheep choroid plexus (SCP) cells were plated into individual wells of a 96 well microtitre plate in 100»l of Eagle's MEM with Hanks salts containing 10% heat inactivated foetal calf serum (FCS). When monolayers had become established (after 1 or 2 days growth) they were washed with 200»l of maintenance medium (Eagle's MEM with Hanks salts containing 0.5% FCS) and infected with 100»l of visna virus (strain K184) in maintenance medium (30 TCID₅₀/ml). Test samples were diluted with maintenance medium in further 96 well microtitre plates over the range 200-0.09»g/ml by 3-fold dilution steps. 100»l of the diluted samples was then transferred directly onto virus-infected monolayers (final concentration range therefore 100-0.045»g/ml) and incubated at 37°C in a humidified, 5% CO₂ incubation until virus-induced CPE was maximal in the untreated virus-infected controls (usually 12-14 days). The plates were fixed with formal saline and stained with crystal violet. Virus-induced CPE was then scored microscopically and the minimum concentration of sample giving complete protection of the cell monolayers (MIC) determined.

[3] = tested on: herpes simplex virus 1 (HSV-1; strain HFEM); test: Plaque reduction test for herpes simplex virus 1; assay type: cell-based; conditions: Human alphaherpesvirus 1, Vero, HFEM strain in Vero cells; each figure is the value obtained in a single test; read-out: IC₅₀ Herpes Simplex Type 1 virus HFEM strain in Vero cells
Protocol: as §1, §2

[4] = tested on: herpes simplex virus 1, strain SC16; test: CPE inhibition test (replicating cells) for herpes simplex virus 1; assay type: cell-based; conditions: Human alphaherpesvirus 1, SC16, MRC5, SC16 strain in MRC-5 cells; each figure is the value obtained in a single test; read-out: IC₅₀ Herpes Simplex Type 1 virus SC16 strain in MRC-5 cells
Text: MRC-5 cells (in Eagles MEM containing 5% newborn calf serum) were infected in suspension with herpes simplex virus 1, strain SC16 (approximately one infectious particle per 10 cells). One hundred microlitres of the infected cell suspension (containing approximately 2 x 10⁴ cells) were dispensed into each well of a 96 well microtitre plate containing an equal volume of the test drug in medium (Eagles MEM containing 5% newborn calf serum) at concentrations ranging from 200 to 0.09»g/ml (3-fold dilution steps); final concentrations therefore ranged between 100 to 0.045»g/ml. The plates were then incubated at 37°C in a humidified atmosphere of 5% CO₂ for 3 days when the virus-induced cytopathic effect (CPE) in the control wells reached 100%. The plates were fixed in formal saline and stained with carbol fuchsin. […] Plates of uninfected cells were set up in parallel to determined the minimum concentration of test compound which caused cytotoxicity.

[5] = tested on: varicella zoster virus (VZV; Ellen strain); test: Plaque reduction test for varicella zoster virus; assay type: cell-based; conditions: Human alphaherpesvirus 3, MRC5, Ellen strain in MRC-5 cells; each figure is the value obtained in a single test; read-out: IC₅₀ Varicella Zoster virus Ellen strain in MRC-5 cells
Protocol: MRC-5 cells were grown to confluence in 24 well multi-dishes (well diameter = 1.5cm). The drained cell monolayers were each infected with approximately 50 infectious particles of varicella zoster virus (VZV; Ellen strain) in 100»l of phosphate-buffered saline. The virus was adsorbed for 1 hour at room temperature. After adsorption, residual inoculum was removed from each well and replaced with 0.5ml of Eagle's MEM containing 5% heat-inactivated foetal calf serum and 0.9% agarose (A37). Once the agarose had set, dilutions of the test compound, which had been prepared in Eagle's MEM (containing 5% heat-inactivated foetal calf serum), were added, each well receiving 0.5ml of liquid overlay. The test compound was diluted to give the following series of cencentrations: 200, 60, 20, 6....0.06»g/ml; final concentrations in the assay ranged, therefore, between 100»g/ml and 0.03»g/ml. The infected cultures were incubated at 37°C in a humidified atmosphere of 5% CO₂ until plaques were clearly visible (5 or 6 days).
as §2

[6] = Human alphaherpesvirus 2, MRC5, MS strain in MRC-5 cells, read-out: IC₅₀ Herpes Simplex Type 2 virus MS strain in MRC-5 cells
[7] = Human alphaherpesvirus 2, Vero, MS strain in Vero cells, read-out: IC₅₀ Herpes Simplex Type 2 virus MS strain in Vero cells

Compound | IC50 [1, 6] [µg/mL] | IC50 [1, 7] [µg/mL] | MIC Visna Virus K184 strain in SCP cells [2] | IC50 [3] [µg/mL] | IC50 [4] [µg/mL] | IC50 [5] [µg/mL]
Nc1nc2c(ncn2OCCCO)c(=O)[nH]1 [Example 1, 9-(3-Hydroxyprop-1-oxy)guanine] | 0.1 (≈ 0.444 µM) | 0.3 (≈ 1.33 µM) | 3.0 »g/ml | 0.4 (≈ 1.78 µM) |  | 
CC(=O)OCCCOn1cnc2c(=O)[nH]c(N)nc21 [Example 2, 9-(3-Acetoxyprop-1-oxy)guanine] | 1.1 (≈ 4.12 µM) |  |  | 4.3 (≈ 16.1 µM) | 0.4 (≈ 1.5 µM) | 
Nc1nc2c(ncn2OCCCOC(=O)c2ccccc2)c(=O)[nH]1 [Example 3, 9-(3-Benzoyloxyprop-1-oxy)guanine] | 2.1 (≈ 6.38 µM) |  |  | 2.8 (≈ 8.5 µM) | 1.2 (≈ 3.64 µM) | 
CCOc1nc(N)nc2c1ncn2OCCCO [Example 4, 2-Amino-6-ethoxy-9-(3-hydroxyprop-1-oxy)purine] | 67 (≈ 265 µM) |  |  |  | 100 (≈ 395 µM) | 21 (≈ 82.9 µM)
Nc1nc2c(ncn2OCC(CO)CO)c(=O)[nH]1 [Example 5, 9-(3-Hydroxy-2-hydroxymethylprop-1-oxy)guanine] | 1.5 (≈ 5.88 µM) | 1.5 (≈ 5.88 µM) | 0.1 »g/ml | 1.5 (≈ 5.88 µM) | 1.8 (≈ 7.05 µM) | 2.9 (≈ 11.4 µM)
Nc1nc2c(ncn2OCC(O)CO)c(=O)[nH]1 (stereo not shown) [Example 6, 9-(2,3-Dihydroxyprop-1-oxy)guanine] | 0.7 (≈ 2.9 µM) | 1.6 (≈ 6.63 µM) | 10 »g/ml | 8.6 (≈ 35.7 µM) | 1.9 (≈ 7.88 µM) | 2.3 (≈ 9.54 µM)
Nc1ncc2ncn(OCC(O)CO)c2n1 (stereo not shown) [Example 7, 2-Amino-9-(2,3-dihydroxyprop-1-oxy)purine] |  |  |  |  | 100 (≈ 444 µM) | 57 (≈ 253 µM)
Nc1nc2c(ncn2OC(CO)CCO)c(=O)[nH]1 (stereo not shown) [Example 8, 9-(1,4-Dihydroxybut-2-oxy)guanine] |  |  | 30 »g/ml |  | 11 (≈ 43.1 µM) | 
CCCCCC(=O)OCCCOn1cnc2c(=O)[nH]c(N)nc21 [Example 11, 9-(3-Hexanoyloxyprop-1-oxy)guanine] |  |  |  | 0.7 (≈ 2.16 µM) | 0.1 (≈ 0.309 µM) | 0.1 (≈ 0.309 µM)
Nc1nc2c(ncn2O[C@@H](CO)CCO)c(=O)[nH]1 [Example 14, (R)-9-(1,4-Dihydroxybut-2-oxy)guanine] |  |  |  |  | 100 (≈ 392 µM) | 
Nc1nc2c(ncn2O[C@H](CO)CCO)c(=O)[nH]1 [Example 15, (S)-9-(1,4-Dihydroxybut-2-oxy)guanine] |  |  |  |  | 7.4 (≈ 29 µM) | 

From patent EP0242482B1, “Antiviral purine derivatives and process for their preparation” (BEECHAM GROUP PLC, priority 1985, dated 1987)
